In ChEMBL document CHEMBL2010751, “Synthesis of a novel suppressor of beta-cell apoptosis via diversity-oriented synthesis” (ACS Med Chem Lett, 2011):
Activity calls are given as the source filed them. No cut-off for these calls is given here.

Legend:
[1] = Inhibition of IL-1beta, IFN-gamma and TNF-alpha-induced apoptosis of rat INS-1E cells assessed as restoring cell viability after 48 hrs by luciferase based CellTiter-Glo assay; assay type: functional
[2] = Inhibition of IL-1beta, IFN-gamma and TNF-alpha-induced apoptosis of rat INS-1E cells assessed as maximum activity to restoring cell viability after 48 hrs by luciferase based CellTiter-Glo assay; assay type: functional
INS-1E [3] = assay: Inhibition of IL-1beta, IFN-gamma and TNF-alpha-induced apoptosis of rat INS-1E cells assessed as decrease in caspase-3 activity after 48 hrs by luminescence assay; assay type: functional, cell-based
INS-1E [4] = assay: Inhibition of IL-1beta, IFN-gamma and TNF-alpha-induced apoptosis of rat INS-1E cells assessed as decrease in nitrite production after 48 hrs by Griess assay; assay type: functional, cell-based
INS-1E [5] = assay: Inhibition of IL-1beta, IFN-gamma and TNF-alpha-induced apoptosis of rat INS-1E cells assessed as restoration of mitochondrial membrane potential at 0.25 to 5 uM after 48 hrs by JC-1 staining analysis; assay type: functional, cell-based
INS-1E [6] = assay: Inhibition of IL-1beta, IFN-gamma and TNF-alpha-induced apoptosis of rat INS-1E cells assessed as glucose-stimulated insulin secretion at 5 uM after 48 hrs by ELISA; assay type: functional, cell-based

| Structure (SMILES) | EC50 [1] [µM] | Activity [2] [%] | inhibition (INS-1E [3]) | inhibition (INS-1E [4]) | inhibition (INS-1E [5]) | inhibition (INS-1E [6]) |
| --- | --- | --- | --- | --- | --- | --- |
| COc1ccc(S(=O)(=O)N(C)C[C@@H]2Oc3c(NC(=O)NC4CCCc5ccccc54)cccc3C(=O)N([C@@H](C)CO)C[C@H]2C)cc1 (stereo partly drawn) | > 20 | 0 | – | – | – | – |
| COc1ccc(S(=O)(=O)N(C)C[C@@H]2Oc3c(NC(=O)Nc4ccc5occc5c4)cccc3C(=O)N([C@@H](C)CO)C[C@H]2C)cc1 | > 20 | 0 | – | – | – | – |
| C[C@@H]1CN([C@@H](C)CO)C(=O)c2cccc(NC(=O)Nc3cccc(Cl)c3Cl)c2O[C@H]1CN(C)S(=O)(=O)c1ccc2c(c1)OCCO2 | > 20 | 0 | – | – | – | – |
| COc1ccc(S(=O)(=O)N(C)C[C@@H]2Oc3c(NC(=O)Nc4cccc5ccccc45)cccc3C(=O)N(C(C)C)C[C@H]2C)cc1 | 3.06 | 76 | – | – | – | – |
| COc1ccccc1S(=O)(=O)N(C)C[C@@H]1Oc2c(NC(=O)Nc3cccc4ccccc34)cccc2C(=O)N([C@@H](C)CO)C[C@H]1C | > 20 | 0 | – | – | – | – |
| C[C@@H]1CN([C@@H](C)CO)C(=O)c2cccc(NC(=O)Nc3cccc4ccccc34)c2O[C@H]1CN(C)S(=O)(=O)c1ccc2c(c1)OCCO2 | 0.78 | 99 | Dose-dependent effect | Dose-dependent effect | Active | Active |
| C[C@@H]1CN([C@@H](C)CO)C(=O)c2cccc(NC(=O)Nc3cccc4ccccc34)c2O[C@H]1CN(C)S(=O)(=O)c1ccc(Oc2ccccc2)cc1 | > 20 | 0 | – | – | – | – |
| COc1ccc(S(=O)(=O)N(C)C[C@@H]2Oc3c(NC(=O)Nc4cccc5ccccc45)cccc3C(=O)N([C@@H](C)CO)C[C@H]2C)cc1 | 4.89 | 62 | – | – | – | – |
| CC(C)N1C[C@@H](C)[C@H](CN(C)S(=O)(=O)c2ccc3c(c2)OCCO3)Oc2c(NC(=O)Nc3cccc4ccccc34)cccc2C1=O | 2.79 | 89 | – | – | – | – |
| COc1ccc(S(=O)(=O)N(C)C[C@@H]2Oc3c(NC(=O)Nc4cccc5ccccc45)cccc3C(=O)N([C@@H](C)CO)C[C@H]2C)cc1C | 3.5 | 76 | – | – | – | – |
| COc1ccc(S(=O)(=O)N(C)C[C@@H]2Oc3c(NC(=O)Nc4cccc5c4CCCC5)cccc3C(=O)N([C@@H](C)CO)C[C@H]2C)cc1 | > 20 | 0 | – | – | – | – |
| COc1cccc(S(=O)(=O)N(C)C[C@@H]2Oc3c(NC(=O)Nc4cccc5ccccc45)cccc3C(=O)N([C@@H](C)CO)C[C@H]2C)c1 | > 20 | 0 | – | – | – | – |
